The source of these data is patent US10690657B2, “Epithelial tissue model” (Nederlandse Organisatie voor …, priority 2012, dated 2020).

The subject of data set [1] is porcine jejunal tissue. Kind of data set: Transport (apical to basolateral) across porcine jejunal tissue, Papp. Particulars: animal of 12 kg body weight in comparison to an animal of 17 or 20 kg (FIG. 10).
Description: (§1) After anesthesia of the animal and resection of intestinal tissue, the tissue was directly added to ice-cold carbonated (5% CO2 and 95% O2) KRB buffer, pH 7.4, further referred to as KRB buffer. • 2. Intestinal tissue was transported to the test site in ice-cold KRB buffer • 3. At the test site, the intestinal tissue was cut open, rinsed with ice-cold KRB buffer when needed, placed on a petridish, submerged in ice-cold KRB buffer and muscle layers were stripped of. • 4. Intestinal segments with a diameter of 20 mm were punched, added to ice-cold KRB buffer, and kept on ice. • 5. After collecting all the segments needed for the incubation, the system was assembled (including to a total of 24 segments per system) and placed on ice. […] Subsequently, samples were taken from the apical and basolateral compartments for further analysis either using liquid scintillation counting (LSC), UV-Absorbance, Fluorescence, High Pressure Liquid Chromatography (HPLC), Liquid chromatography-Mass Spectrometry (LCMS), Liquid chromatography-Tandem Mass Spectrometry (LC-MSMS), Enzyme-Linked Immunosorbent Assay (ELISA), or Radio-Immuno Assay (RIA). • 11. […]
(§2) The apparent permeability value (Papp) is calculated using the following equation: Papp=(dQ/dt)/(A*C0), where dQ/dt refers to the permeability rate (mol/s), A is the surface area filter insert (cm2) and C0 is the initial concentration (mol/L). […]
Data set [2] deals with porcine jejunal tissue.
Description: as §1, §2
For data set [3], the system named is porcine ileal tissue. Description: Translocation across porcine ileal tissue. In kind it is in vitro ADME. Particulars: between 0 and 60 minutes (FIG. 11). The protocol:
Translocation of the bacterial endotoxin lipopoly-saccharide (LPS) across the porcine ileal tissue during incubation time.

With `Cn1c(N)nc2ncc(-c3ccccc3)cc21` [[14C]-PhIP, 2-amino-1-methyl-6-phenylimidazo[4,5-b]pyridine], the “Transport across porcine jejunal tissue from animals with a different age” value in data set [1] is given as “higher transport”.

`Cn1c(=O)c2c(ncn2C)n(C)c1=O` [caffeine]: in data set [2], the “Apparent permeability (Papp) over time” value was “constant Papp value over time”.

Consider lipopolysaccharide [LPS], for which the “Lag time of transport across porcine ileal tissue” value in data set [3] was “clear lag time of transport”.
